Laboratory results: patent US11447484B2, “Cyclic compound having dopamine D3 receptor antagonistic effect” (Shionogi & Co., Ltd., priority 2018, dated 2022)
pKi: −log10 of the molar value.

Columns and labels:
[1] = biological target: human recombinant D3 receptor (Homo sapiens (Human), UniProt P35462); assay: Test of binding inhibition for dopamine D3 receptor; settings: Jump-In HEK cell membranes, 2 nM [3H]-Methylspiperone, 120 min at 25° C.; read-out: hD3_Ki
Experimental: Test Example 1: Test of Binding Inhibition for Dopamine D3 Receptor
(§1) (Experimental Conditions)
Cell membranes: Jump-In HEK cell membranes expressing human recombinant D3 receptor (4 μg/well)
(§2) Buffer solution: 50 mM Tris-HCl (35409-45, Nacalai Tesque) (pH 7.4) containing 120 mM NaCl (31320-05, Nacalai Tesque), 1 mM MgCl2.6H2O (20909-55, Nacalai Tesque), 5 mM KCl (28514-75, Nacalai Tesque) and 2 mM CaCl2 (067-31, NAKARAI CHEMICALS, LTD.)
Radioligand: (final concentration) 2 nM [^3H]-Methylspiperone ([^3H—N-methyl-]-Methylspiperone, NET-856, 83.8 Ci/mmol, PerkinElmer)
Non-specific ligand: (final concentration) 10 μM Butaclamol [(+)-Butaclamol Hydrochloride, D033, Sigma]
(§3) SPA beads solution: SPA beads [WGA PVT SPA Scintillation Beads, RPNQ0001 (500 mg), RPNQ0060 (2 g), PerkinElmer] (0.2 mg/well)
(§4) Incubation time and temperature: 120 min at 25° C.
(§5) Butaclamol or the compounds of the present invention were weighed and DMSO was added to make a 10 mM solution. This solution was diluted to each concentration.
[^3H]-Methylspiperone was weighed and the buffer solution was added to make a 6 nM solution.
(§6) SPA beads were weighed and stirred in water to make a 50 mg/mL solution. Using this solution, a mixture with the cell membranes was prepared.
(§7) 225 nL of the solutions of the non-specific ligand or the compounds of the present invention at each concentration (in case of vehicle, final concentration 0.3% DMSO) were added in each well of a 384-well white/clear bottom microplate (3706, Corning). Jump-In HEK Cell membranes (final reaction amount: 4 μg protein/well), the SPA beads solution (final reaction amount: 0.2 mg/well) and the buffer solution were mixed and the mixed solution was left still for 1 hour or more at 4° C. Then, 50 μL of the mixture was added to each well of the plate. In addition, 25 μL of 6 nM [^3H]-Methylspiperone (final concentration: 2 nM) was added to each well. The plate was sealed by putting TopSeal-A 96/384 well (6050185, PerkinElmer, Inc.) on the top of the plate, mixed using stirring deaerator (Well Tornado, FK-62, Sakaki-elc.) and incubated for 120 min at 25° C. After incubation, the radioactivity of [^3H]-Methylspiperone which was bonded to D3 receptor was determined by liquid scintillation counter (1450 Microbeta, PerkinElmer) in each well. Non-specific binding was calculated based on the radioactivity of [^3H]-Methylspiperone in the presence of 10 μM non-labeled Butaclamol. The total binding was calculated using the radioactivity of [^3H]-Methylspiperone in the absence of the compounds of the present invention (vehicle). The Ki values were calculated from dose-response curves.
(§8) Binding activities of the compounds of the present invention were calculated from the following Binding Inhibition Rate (%): Inhibition Rate(%)=[1−(c−a)/(b−a)]×100 • a: Average cpm of non-specific binding • b: Average cpm of total binding • c: Cpm in the presence of each test compound

[2] = biological target: human recombinant D2 receptor (Homo sapiens (Human), UniProt P14416); assay: Test of binding inhibition for dopamine D2 receptor; settings: Jump-In HEK cell membranes, 1.2 nM [3H]-Methylspiperone, 120 min at 25° C.; read-out: hD2_Ki
Experimental: Test Example 2: Test of Binding Inhibition for Dopamine D2 Receptor
as §1
Cell membranes: Jump-In HEK cell membranes expressing human recombinant D2 receptor (2 μg/well)
as §2
Radioligand: (final concentration) 1.2 nM [^3H]-Methylspiperone ([^3H—N-methyl-]-Methylspiperone, NET-856, 83.8 Ci/mmol, PerkinElmer)
Non-specific ligand: (final concentration) 10 μM Butaclamol [(+)-Butaclamol Hydrochloride, D033; Sigma]
as §3, §4, §5
[^3H]-Methylspiperone was weighed and the buffer solution was added to make a 3.6 nM solution.
as §6
as §7, with “amount: 2” for “amount: 4”, “SPA bead” for “SPA beads”, “of 3.6” for “of 6”, “concentration: 1.2” for “concentration: 2”, “(6050185, PerkinElmer)” for “(6050185, PerkinElmer, Inc.)”, “to D2” for “to D3”
as §8

Sequence of human recombinant D3 receptor (P35462 whole entry): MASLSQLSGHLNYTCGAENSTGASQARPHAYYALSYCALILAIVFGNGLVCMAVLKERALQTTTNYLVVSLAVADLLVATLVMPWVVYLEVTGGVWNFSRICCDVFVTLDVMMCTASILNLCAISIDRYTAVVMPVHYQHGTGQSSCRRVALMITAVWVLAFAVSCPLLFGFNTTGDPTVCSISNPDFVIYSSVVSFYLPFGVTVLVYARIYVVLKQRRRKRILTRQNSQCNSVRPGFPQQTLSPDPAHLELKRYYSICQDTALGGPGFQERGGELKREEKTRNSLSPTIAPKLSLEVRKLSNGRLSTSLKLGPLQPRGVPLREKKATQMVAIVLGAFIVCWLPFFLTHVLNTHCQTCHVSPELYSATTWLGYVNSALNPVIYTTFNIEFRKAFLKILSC
Sequence of human recombinant D2 receptor (P14416 whole entry): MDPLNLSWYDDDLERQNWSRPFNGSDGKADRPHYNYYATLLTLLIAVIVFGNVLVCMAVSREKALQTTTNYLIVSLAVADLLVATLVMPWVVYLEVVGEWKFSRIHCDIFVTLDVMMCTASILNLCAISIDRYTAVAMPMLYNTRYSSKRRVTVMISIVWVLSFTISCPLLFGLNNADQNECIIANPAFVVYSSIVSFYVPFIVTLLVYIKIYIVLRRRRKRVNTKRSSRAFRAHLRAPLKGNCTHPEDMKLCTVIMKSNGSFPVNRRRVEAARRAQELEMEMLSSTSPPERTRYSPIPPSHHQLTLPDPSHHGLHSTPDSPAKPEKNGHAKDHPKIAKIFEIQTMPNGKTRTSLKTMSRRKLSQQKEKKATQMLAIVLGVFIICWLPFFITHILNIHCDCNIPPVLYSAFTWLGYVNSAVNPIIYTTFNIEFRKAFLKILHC

pKi [1]	pKi [2]	SMILES
8.48	< 5.77	O=C(N[C@H]1CC[C@H](CCN2CCC(c3nccn3-c3ccccn3)CC2)CC1)c1cccc2ncccc12 [Compound I-001]
9.92	7.49	O=C(N[C@H]1CC[C@H](CCN2CCC(c3nocc3-c3ccccc3)CC2)CC1)c1cccc2ncccc12 [Compound I-002]
10.03	7.44	O=C(N[C@H]1CC[C@H](CCN2CCC(c3nocc3-c3cccc(F)c3)CC2)CC1)c1cccc2ncccc12 [Compound I-003]
9.22	6.80	O=C(N[C@H]1CC[C@H](CCN2CCC(c3nocc3C3CC3)CC2)CC1)c1cccc2ncccc12 [Compound I-004]
8.92	6.07	O=C(N[C@H]1CC[C@H](CCN2CCC(c3conc3-c3ccccc3)CC2)CC1)c1cccc2ncccc12 [Compound I-005]
8.40	5.96	O=C(N[C@H]1CC[C@H](CCN2CCC(c3ccnn3-c3ccccc3)CC2)CC1)c1cccc2ncccc12 [Compound I-006]
8.57	< 5.74	O=C(N[C@H]1CC[C@H](CCN2CCC(n3nccc3-c3ccccc3)CC2)CC1)c1cccc2ncccc12 [Compound I-007]
9.16	6.46	Cc1cc(CC(=O)N[C@H]2CC[C@H](CCN3CCC(c4nocc4C(C)(F)F)CC3)CC2)on1 [Compound I-008]
8.72	6.48	Cc1ncc(CC(=O)N[C@H]2CC[C@H](CCN3CCC(c4noc(C)c4C(C)(F)F)CC3)CC2)s1 [Compound I-009]
9.19	6.64	Cc1ncc(CC(=O)N[C@H]2CC[C@H](CCN3CCC(c4nocc4C(C)(F)F)CC3)CC2)s1 [Compound I-010]
9.20	6.42	Cc1ncc(CC(=O)N[C@H]2CC[C@H](CCN3CCC(c4nocc4CC4CC4)CC3)CC2)s1 [Compound I-011]
8.72	6.34	Cc1ncc(CC(=O)N[C@H]2CC[C@H](CCN3CCC(c4nscc4C(C)(F)F)CC3)CC2)s1 [Compound I-012]
9.02	6.64	Cc1ncc(CC(=O)N[C@H]2CC[C@H](CCN3CCC(c4nocc4C4CC4)CC3)CC2)s1 [Compound I-013]
9.70	7.06	Cc1ncc(CC(=O)N[C@H]2CC[C@H](CCN3CCN(c4nocc4C(C)(F)F)CC3)CC2)s1 [Compound I-014]
9.89	7.17	CCC(F)(F)c1conc1C1CCN(CC[C@H]2CC[C@H](NC(=O)Cc3nnc(C)s3)CC2)CC1 [Compound I-015]
10.07	7.48	CCC(F)(F)c1conc1C1CCN(CC[C@H]2CC[C@H](NC(=O)c3cccc4nn(C)cc34)CC2)CC1 [Compound I-016]
9.68	7.28	Cn1cc2c(C(=O)N[C@H]3CC[C@H](CCN4CCN(c5nocc5C(C)(F)F)CC4)CC3)cccc2n1 [Compound I-017]
9.66	7.35	Cn1cc2c(C(=O)N[C@H]3CC[C@H](CCN4CCC(c5nocc5C(F)(F)C5CC5)CC4)CC3)cccc2n1 [Compound I-018]
9.82	7.17	Cc1ncc(CC(=O)N[C@H]2CC[C@H](CCN3CCN(c4nocc4C(C)(F)F)C(C)C3)CC2)s1 (some centres unmarked) [Compound I-019]

pKi [1]	pKi [2]	SMILES
9.43	6.51	CCC(F)(F)c1conc1C1(F)CCN(CC[C@H]2CC[C@H](NC(=O)Cc3cnc(C)s3)CC2)CC1 [Compound I-020]
9.96	6.77	Cn1cc2c(C(=O)N[C@H]3CC[C@H](CCN4CCC(c5nocc5C(C)(F)F)CC4)CC3)cccc2n1 [Compound I-022]
9.16	5.77	CC(=O)c1conc1C1=CCN(CC[C@H]2CC[C@H](NC(=O)c3cccc4nn(C)cc34)CC2)CC1 [Compound I-023]
10.09	6.66	Cn1cc2c(C(=O)N[C@H]3CC[C@H](CCN4CC=C(c5nocc5C(C)(F)F)CC4)CC3)cccc2n1 [Compound I-024]
8.62	5.92	Cn1cc2c(C(=O)N[C@H]3CC[C@H](CCN4CCC5CC5(c5cc(C(C)(F)F)on5)C4)CC3)cccc2n1 (some centres unmarked) [Compound I-025]
9.26	6.60	Cn1cc2c(C(=O)N[C@H]3CC[C@](F)(CCN4CCC(c5nocc5C(C)(F)F)CC4)CC3)cccc2n1 [Compound I-026]
9.52	< 5.74	Cn1cc2c(C(=O)N[C@H]3CC[C@H](CCN4C[C@@H]5C[C@]5(c5cc(C(C)(F)F)on5)C4)CC3)cccc2n1 [Compound I-027]
8.72		Cn1cc2c(C(=O)N[C@H]3CC[C@H](CCN4CC5CC5(c5cc(CF)on5)C4)CC3)cccc2n1 (some centres unmarked) [Compound I-028]
8.66	5.96	Cc1ncc(CC(=O)N[C@H]2CC[C@H](CCN3CC4CC4(c4cc(CF)on4)C3)CC2)s1 (some centres unmarked) [Compound I-029]
8.54	< 5.74	Cc1cc(C23CC2CN(CC[C@H]2CC[C@H](NC(=O)c4cccc5nn(C)cc45)CC2)C3)no1 (some centres unmarked) [Compound I-030]
8.42	< 5.74	Cc1cc(C23CC2CN(CC[C@H]2CC[C@H](NC(=O)Cc4cnc(C)s4)CC2)C3)no1 (some centres unmarked) [Compound I-031]
9.40	6.70	Cn1cc2c(C(=O)N[C@H]3CC[C@H](CCN4CC5CC5(c5cc(C(F)F)on5)C4)CC3)cccc2n1 (some centres unmarked) [Compound I-032]
9.11		CC(F)c1cc(C23CC2CN(CC[C@H]2CC[C@H](NC(=O)c4cccc5nn(C)cc45)CC2)C3)no1 (some centres unmarked) [Compound I-033]
9.62	6.06	Cn1cc2c(C(=O)NN3CCC(CCN4C[C@@H]5C[C@]5(c5cc(C(C)(F)F)on5)C4)CC3)cccc2n1 [Compound I-035]
9.60	6.72	Cc1ncccc1C(=O)N[C@H]1CC[C@H](CCN2C[C@@H]3C[C@]3(c3cc(C(C)(F)F)on3)C2)CC1 [Compound I-036]
9.15	6.54	CCc1cc([C@]23C[C@H]2CN(CC[C@H]2CC[C@H](NC(=O)c4cccc5nn(C)cc45)CC2)C3)no1 [Compound I-037]
10.14	7.04	CCn1c(C(=O)N[C@H]2CC[C@H](CCN3C[C@@H]4C[C@]4(c4cc(C(C)(F)F)on4)C3)CC2)cccc1=O [Compound I-038]
9.41	6.52	Cn1ncc(CC(=O)N[C@H]2CC[C@H](CCN3C[C@@H]4C[C@]4(c4cc(C(C)(F)F)on4)C3)CC2)n1 [Compound I-039]

SMILES	pKi [1]	pKi [2]
Cn1cc2c(C(=O)N[C@H]3CC[C@H](CCN4CCC5(c6nocc6C(C)(F)F)CC5C4)CC3)cccc2n1 (some centres unmarked) [Compound I-021]	8.32	5.77
